Tests used:
[1] = molecular target: T1, Neutral alpha-glucosidase AB (Homo sapiens) (UniProt Q14697); assay: Percentage inhibition (100 uM) against Alpha glucosidase
T1 sequence (whole entry): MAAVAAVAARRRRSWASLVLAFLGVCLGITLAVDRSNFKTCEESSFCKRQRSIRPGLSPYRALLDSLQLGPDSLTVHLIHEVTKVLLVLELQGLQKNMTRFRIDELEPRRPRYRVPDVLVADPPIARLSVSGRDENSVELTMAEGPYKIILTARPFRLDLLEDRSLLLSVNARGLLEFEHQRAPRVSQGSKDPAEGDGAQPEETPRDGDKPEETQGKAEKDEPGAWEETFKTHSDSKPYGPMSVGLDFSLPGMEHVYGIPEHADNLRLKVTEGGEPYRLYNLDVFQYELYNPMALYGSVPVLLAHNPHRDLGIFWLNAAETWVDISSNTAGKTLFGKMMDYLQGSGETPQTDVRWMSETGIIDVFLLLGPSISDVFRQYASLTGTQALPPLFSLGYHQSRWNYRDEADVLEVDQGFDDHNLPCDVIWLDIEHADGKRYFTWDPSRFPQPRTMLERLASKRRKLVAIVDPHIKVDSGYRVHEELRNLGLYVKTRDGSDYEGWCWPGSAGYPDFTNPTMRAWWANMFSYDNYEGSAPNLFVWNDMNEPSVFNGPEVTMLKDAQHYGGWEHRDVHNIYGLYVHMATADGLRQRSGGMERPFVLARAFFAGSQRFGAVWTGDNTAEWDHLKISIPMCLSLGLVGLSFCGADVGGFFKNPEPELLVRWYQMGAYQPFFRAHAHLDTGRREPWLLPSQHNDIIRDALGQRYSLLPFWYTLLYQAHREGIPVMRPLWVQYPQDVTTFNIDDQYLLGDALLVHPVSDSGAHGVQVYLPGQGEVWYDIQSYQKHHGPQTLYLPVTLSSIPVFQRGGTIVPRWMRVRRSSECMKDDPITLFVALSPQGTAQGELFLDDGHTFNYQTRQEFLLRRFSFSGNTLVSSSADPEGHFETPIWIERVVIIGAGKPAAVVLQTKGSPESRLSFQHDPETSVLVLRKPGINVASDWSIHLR

[2] = Percentage inhibition (100 uM) against protein tyrosine […]

Compound	inhibition [1] [%]	inhibition [2] [%]
C[C@H]1O[C@H](O[C@H]2[C@H](O)[C@@H](O)[C@@H](O[C@H]3[C@H](O)[C@@H](O)C(O)O[C@@H]3CO)O[C@@H]2CO)[C@H](O)[C@@H](O)[C@@H]1N[C@H]1C=C(CO)[C@@H](O)[C@H](O)[C@H]1O (some centres not stated)	90	
N#Cc1c(N2CCc3ccccc3C2)cc(-c2ccc(Cl)cc2)oc1=O	51.9	18.2
N#Cc1c(N2CCc3ccccc3C2)cc(-c2ccc(Br)cc2)oc1=O	59.7	25.1
N#Cc1c(N2CCc3ccccc3C2)cc(-c2cccc3ccccc23)c2c1CCSC2	96.1	26.7
N#Cc1c(-c2ccc(C(F)(F)F)cc2)cc(-c2ccc3ccc4cccc5ccc2c3c45)cc1N1CCCC1	93.8	12.5
N#Cc1c(N2CCc3ccccc3C2)cc(-c2ccc(Cl)cc2)c2c1CCCC2	20.7	23.2
SODIUM ORTHOVANAD		77.6
N#Cc1c(N2CCc3ccccc3C2)cc(-c2cccc3ccccc23)c2c1-c1ccccc1CC2	94.8	51.8
N#Cc1c(N2CCc3ccccc3C2)cc(-c2ccc(Cl)cc2)c2c1CCCCC2	47.4	42.8
N#Cc1c(N2CCc3ccccc3C2)cc(-c2ccc(Cl)cc2)c2c1CCCCCC2	28.8	24.2
N#Cc1c(N2CCc3ccccc3C2)cc(-c2cccc3ccccc23)c2c1CCCC2	72.2	14.8
N#Cc1c(N2CCc3ccccc3C2)cc(-c2cccc3ccccc23)c2c1-c1ccccc1SC2	98.7	41.9

— ChEMBL document CHEMBL1141999, “Biaryls and heterobiaryls as alpha-glucosidase and protein tyrosine phosphatase inhibitors” (Bioorg Med Chem Lett, 2005)
